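These data come from cells grown in 96-well plates and exposed to compound for 48 hours at five concentrations. GI50 is the concentration that inhibits growth by half.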 Calls of active or inactive are those of the source. Cut-off read from the data, not from the text of the source: active = GI50 up to about 1.1 µM and inactive = higher.
Tests used:
Assay in all cases: NCI tumour cell line growth inhibition, 48 h
RXF 393 = test system: RXF 393
NCI/ADR-RES = test system: NCI/ADR-RES
OVCAR-3 = test system: OVCAR-3
Hs-578T = test system: Hs-578T
UACC-62 = test system: UACC-62
NCI-H460 = test system: NCI-H460
HCT-116 = test system: HCT-116
SW-620 = test system: SW-620
BT-549 = test system: BT-549
HCC 2998 = test system: HCC 2998
SK-MEL-5 = test system: SK-MEL-5
KM12 = test system: KM12
CAKI-1 = test system: CAKI-1
MDA-MB-231 = test system: MDA-MB-231
K562 = test system: K562
MOLT-4 = test system: MOLT-4
SN12C = test system: SN12C
ACHN = test system: ACHN
TK-10 = test system: TK-10
HCT-15 = test system: HCT-15

| SMILES | GI50 (RXF 393) | GI50 (NCI/ADR-RES) | GI50 (OVCAR-3) | GI50 (Hs-578T) | GI50 (UACC-62) | GI50 (NCI-H460) | GI50 (HCT-116) | GI50 (SW-620) | GI50 (BT-549) | GI50 (HCC 2998) | GI50 (SK-MEL-5) | GI50 (KM12) | GI50 (CAKI-1) | GI50 (MDA-MB-231) | GI50 (K562) | GI50 (MOLT-4) | GI50 (SN12C) | GI50 (ACHN) | GI50 (TK-10) | GI50 (HCT-15) [µM] |
| --- | --- | --- | --- | --- | --- | --- | --- | --- | --- | --- | --- | --- | --- | --- | --- | --- | --- | --- | --- | --- |
| Cc1sc(/N=C/c2c[nH]c3ccccc23)c(C#N)c1C | 22.3 µM (inactive) | 74.6 µM (inactive) | 11.2 µM (inactive) | 58.1 µM (inactive) | 20.7 µM (inactive) | 33.1 µM (inactive) | 23.4 µM (inactive) | 39.7 µM (inactive) | 42.1 µM (inactive) | 14.9 µM (inactive) | 18.4 µM (inactive) | 13.7 µM (inactive) | 56.2 µM (inactive) | 36.4 µM (inactive) | 16.3 µM (inactive) | 23 µM (inactive) | 74.3 µM (inactive) | 29.6 µM (inactive) | 20 µM (inactive) | 24 |
| Oc1ccccc1CNCc1ccccc1O | > 100 µM (inactive) | > 100 µM (inactive) | > 100 µM (inactive) | 39 µM (inactive) | > 100 µM (inactive) | 78.5 µM (inactive) | > 100 µM (inactive) | > 100 µM (inactive) | > 100 µM (inactive) | 19.2 µM (inactive) | 46.9 µM (inactive) | > 100 µM (inactive) | > 100 µM (inactive) | > 100 µM (inactive) | 39.6 µM (inactive) | 88.5 µM (inactive) | > 100 µM (inactive) | > 100 µM (inactive) | > 100 µM (inactive) | > 100 |
